# Test results: US12448388B2, “PRMT5 inhibitors and uses thereof” (Gilead Sciences, Inc., priority 2023, dated 2025)
# System: HCT116 MTAP-deleted cell lines
# Test: Cell viability assay (CellTiter-Glo, 7 days), HCT116 MTAP-deleted
# Type: cell-based
# Settings: Homo sapiens, HCT-116
# Summary of the method: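 Read-out was CellTiter-Glo luminescence after a 7-day incubation (37 °C, 5% CO2) of HCT116 cells, MTAP-deleted or WT, on dose-response compound plates. CC50 values come from each line; where marked *, selectivity is overstated because poor solubility impaired the WT CC50 measurement.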
row,Compound,CC50 [nM]
1,"Nc1nc2cc(F)c(C(=O)N3CC4(CCC3c3ccc(C(F)(F)F)cn3)CC4)cc2n2cncc12 (stereo not shown) [Ff-149, (4-amino-7-fluoroimidazo[1,5-a]quinoxalin-8-yl)(6-(5-(trifluoromethyl)pyridin-2-yl)-5-azaspiro[2.5]octan-5-yl)methanone]",< 100

# Same assay, conditions: Homo sapiens, HCT-116; cell viability assay, HCT116 MTAP-deleted; class symbols; read-out: CC50
row,Compound,CC50 [nM]
1,"CN(C(=O)c1ccc2nc(N)c3cncn3c2c1)[C@@H]1COc2cc(C#CC3(O)COC3)ccc21 [Ff-527, (S)-4-amino-N-(6-((3-hydroxyoxetan-3-yl)ethynyl)-2,3-dihydrobenzofuran-3-yl)-N-methylimidazo[1,5-a]quinoxaline-8-carboxamide]",100 to 1000
2,"CN(C(=O)c1cc2c(cc1F)nc(N)c1cncn12)[C@@H]1COc2cc([C@@H]3C[C@H]3C(F)F)ccc21 (single isomer, unassigned) [Ff-504]",< 100
3,"Nc1nc2ccc(C(=O)N3CC[C@H]4C[C@@H]3c3ccc(C(F)(F)F)cc3O4)cc2n2cncc12 [Ff-510, (4-aminoimidazo[1,5-a]quinoxalin-8-yl)((2S,6R)-9-(trifluoromethyl)-3,4-dihydro-2H-2,6-methanobenzo[b][1,5]oxazocin-5(6H)-yl)methanone]",< 100
4,"Nc1nc2cc(F)c(C(=O)N3CCC[C@H]4Oc5cc(OC(F)(F)F)ccc5[C@H]43)cc2n2cncc12 (single isomer, unassigned) [Ff-394]",100 to 1000
5,"C[C@H](c1ncc(C(F)(F)F)cc1F)N(C)C(=O)c1cc2c(cc1F)nc(N)c1cncn12 [Ff-537, (R)-4-amino-7-fluoro-N-(1-(3-fluoro-5-(trifluoromethyl)pyridin-2-yl)ethyl)-N-methylimidazo[1,5-a]quinoxaline-8-carboxamide]",< 100
6,"Nc1nc2cc(F)c(C(=O)N3CCO[C@@H]4CCc5ccccc5[C@@H]43)cc2n2cncc12 (relative stereo) [Ff-427, cis-2,3,4a,5,6,10b-hexahydrobenzo[f][1,4]benzoxazin-1-yl-(4-amino-7-fluoro-imidazo[1,5-a]quinoxalin-8-yl)methanone]",100 to 1000
7,"Nc1nc2cc(Cl)c(C(=O)N3CC[C@H]4C[C@@H]3c3ccc(Cl)c(F)c34)cc2n2cncc12 [Ff-489, (4-amino-7-chloroimidazo[1,5-a]quinoxalin-8-yl)((1R,5S)-7-chloro-6-fluoro-1,3,4,5-tetrahydro-2H-1,5-methanobenzo[c]azepin-2-yl)methanone]",100 to 1000
8,"Nc1nc2cc(Cl)c(C(=O)N3CC[C@H]4C[C@@H]3c3ccc(Cl)cc34)cc2n2cncc12 [Ff-599, (4-amino-7-chloroimidazo[1,5-a]quinoxalin-8-yl)((1R,5S)-7-chloro-1,3,4,5-tetrahydro-2H-1,5-methanobenzo[c]azepin-2-yl)methanone]",< 100
9,"CN(C(=O)c1cc2c(cc1F)nc(N)c1cncn12)[C@@H]1COc2cc(OC(F)(F)F)ccc21 (single isomer, unassigned) [Ff-557]",< 100
10,"COc1cc(C(F)(F)F)ccc1[C@H](C)N(C)C(=O)c1cc2c(cc1F)nc(N)c1cncn12 [Ff-536, (S)-4-amino-7-fluoro-N-(1-(2-methoxy-4-(trifluoromethyl)phenyl)ethyl)-N-methylimidazo[1,5-a]quinoxaline-8-carboxamide]",100 to 1000
11,"Nc1nc2cnc(C(=O)N3CC[C@H]4C[C@@H]3c3ccc(Cl)nc34)cc2n2cncc12 [Ff-602, (4-aminoimidazo[1,5-a]pyrido[3,4-e]pyrazin-8-yl)((5R,9S)-2-chloro-5,7,8,9-tetrahydro-6H-5,9-methanopyrido[3,2-c]azepin-6-yl)methanone]",100 to 1000
12,"Nc1nc2cc(F)c(C(=O)N3CCC[C@H]4Oc5cc(OC(F)(F)F)c(F)cc5[C@H]43)cc2n2cncc12 (single isomer, unassigned) [Ff-397]",100 to 1000
13,"CN(C(=O)c1cc2c(cc1F)nc(N)c1cncn12)[C@@H]1COc2cc(C#CC3C4COCC34)ccc21 (stereo partly drawn) [Ff-524, N-((3S)-6-((3-oxabicyclo[3.1.0]hexan-6-yl)ethynyl)-2,3-dihydrobenzofuran-3-yl)-4-amino-7-fluoro-N-methylimidazo[1,5-a]quinoxaline-8-carboxamide]",< 100
14,"CN(C(=O)c1cc2c(cc1F)nc(N)c1cncn12)[C@@H]1COc2cc(S(F)(F)(F)(F)F)ccc21 [Ff-652, (S)-4-amino-7-fluoro-N-methyl-N-(6-(pentafluoro-16-sulfaneyl)-2,3-dihydrobenzofuran-3-yl)imidazo[1,5-a]quinoxaline-8-carboxamide]",< 100
15,"CN(C(=O)c1cc2c(cc1F)nc(N)c1cncn12)[C@@H]1COc2cc(C3CCOC3(C)C)ccc21 (stereo partly drawn) [Ff-486, 4-amino-N-((3S)-6-(2,2-dimethyltetrahydrofuran-3-yl)-2,3-dihydrobenzofuran-3-yl)-7-fluoro-N-methylimidazo[1,5-a]quinoxaline-8-carboxamide]",< 100
16,"Cc1ncn2c1c(N)nc1cc(F)c(C(=O)N3C[C@H](C)C[C@@H]4Oc5cc(C(F)(F)F)ncc5[C@@H]43)cc12 [Fg-21, (4-amino-7-fluoro-3-methylimidazo[1,5-a]quinoxalin-8-yl)((3R,4aS,9bS)-3-methyl-7-(trifluoromethyl)-3,4,4a,9b-tetrahydrofuro[3,2-b:4,5-c′]dipyridin-1(2H)-yl)methanone]",< 100
17,"Nc1nc2ccc(C(=O)N3C[C@@H](F)C[C@@H]4Oc5cc(C(F)(F)F)ccc5[C@@H]43)cc2n2cncc12 [Ff-649, (4-aminoimidazo[1,5-a]quinoxalin-8-yl)((3S,4aS,9bS)-3-fluoro-7-(trifluoromethyl)-3,4,4a,9b-tetrahydrobenzofuro[3,2-b]pyridin-1(2H)-yl)methanone]",< 100

# Same assay, conditions: Homo sapiens, HCT-116; cell viability, HCT116 MTAP-deleted; class symbols; read-out: CC50
row,Compound,CC50 [nM]
1,"Nc1nc2cc(F)c(C(=O)N(Cc3ccc(-c4cnn(C(F)F)c4)cc3F)C34CC(C3)C4)cc2n2cncc12 [Ff-205, 4-amino-N-(bicyclo[1.1.1]pentan-1-yl)-N-(4-(1-(difluoromethyl)-1H-pyrazol-4-yl)-2-fluorobenzyl)-7-fluoroimidazo[1,5-a]quinoxaline-8-carboxamide]",< 100
2,"C[C@@H]1CN(C(=O)c2cc3c(cc2F)nc(N)c2cncn23)[C@H]2c3ccc(C(F)(F)F)cc3C[C@H]2O1 (single isomer, unassigned) [Ff-77]",< 100
3,"COc1cc(C(F)(F)F)ccc1C1CCCCN1C(=O)c1cc2c(cc1F)nc(N)c1cncn12 (stereo not shown) [Ff-143, (4-amino-7-fluoroimidazo[1,5-a]quinoxalin-8-yl)(2-(2-methoxy-4-(trifluoromethyl)phenyl)piperidin-1-yl)methanone]",100 to 1000
4,"Nc1nc2cc(F)c(C(=O)N3CCC[C@@H]4OCc5nc(C(F)(F)F)ccc5[C@@H]43)cc2n2cncc12 [Ff-357, (4-amino-7-fluoroimidazo[1,5-a]quinoxalin-8-yl)((4aS,10bS)-8-(trifluoromethyl)-2,3,4,4a,6,10b-hexahydro-1H-pyrano[3,2-b:5,4-b′]dipyridin-1-yl)methanone]",< 100
5,"Nc1nc2ccc(C(=O)N3CCC[C@@H]4Oc5c(ccc(C(F)(F)F)c5F)[C@@H]43)cc2n2cncc12 [Ff-118, (4-aminoimidazo[1,5-a]quinoxalin-8-yl)((4aS,9bS)-6-fluoro-7-(trifluoromethyl)-3,4,4a,9b-tetrahydrobenzofuro[3,2-b]pyridin-1(2H)-yl)methanone]",< 100
6,"C[C@@H]1CC[C@@H]2Oc3cc(C(F)(F)F)ccc3[C@@H]2N1C(=O)c1cc2c(cn1)nc(N)c1cncn12 (racemic) [Ff-106, Rac-(4-aminoimidazo[1,5-a]pyrido[3,4-e]pyrazin-8-yl)((2R,4aS,9bS)-2-methyl-7-(trifluoromethyl)-3,4,4a,9b-tetrahydrobenzofuro[3,2-b]pyridin-1(2H)-yl)methanone]",< 100
7,"CN(C(=O)c1cc2c(cc1F)nc(N)c1cncn12)[C@@H]1COc2cc(-c3cnn4c3COCC4)ccc21 [Ff-150, (S)-4-amino-N-(6-(6,7-dihydro-4H-pyrazolo[5,1-c][1,4]oxazin-3-yl)-2,3-dihydrobenzofuran-3-yl)-7-fluoro-N-methylimidazo[1,5-a]quinoxaline-8-carboxamide]",< 100
8,"Nc1nc2cc(F)c(C(=O)N3CCC(F)(F)CC3c3ccc(C(F)(F)F)cn3)cc2n2cncc12 (stereo not shown) [Ff-223, (4-amino-7-fluoroimidazo[1,5-a]quinoxalin-8-yl)(4,4-difluoro-2-(5-(trifluoromethyl)pyridin-2-yl)piperidin-1-yl)methanone]",100 to 1000
9,"Nc1nc2cc(F)c(C(=O)N3C[C@H](F)CCC3c3ccc(C(F)(F)F)cn3)cc2n2cncc12 (mixture of isomers) [Ff-228, (4-amino-7-fluoroimidazo[1,5-a]quinoxalin-8-yl)((5R)-5-fluoro-2-(5-(trifluoromethyl)pyridin-2-yl)piperidin-1-yl)methanone]",< 100
10,"CN1CCN(C(=O)c2cc3c(cc2F)nc(N)c2cncn23)C(c2ccc(C(F)(F)F)cn2)C1 (stereo not shown) [Ff-136, (4-amino-7-fluoroimidazo[1,5-a]quinoxalin-8-yl)(4-methyl-2-(5-(trifluoromethyl)pyridin-2-yl)piperazin-1-yl)methanone]",100 to 1000
11,"C[C@@H]1CCN(C(=O)c2cc3c(cc2F)nc(N)c2cncn23)C(c2ccc(C(F)(F)F)cn2)C1 (stereo partly drawn) [Ff-224, (4-amino-7-fluoroimidazo[1,5-a]quinoxalin-8-yl)((4R)-4-methyl-2-(5-(trifluoromethyl)pyridin-2-yl)piperidin-1-yl)methanone]",100 to 1000
12,"C[C@@H]1CN(C(=O)c2cc3c(cc2F)nc(N)c2cncn23)[C@H]2c3ccccc3C[C@H]2O1 (racemic) [Ff-56, Rac-(4-amino-7-fluoroimidazo[1,5-a]quinoxalin-8-yl)((2R,4aS,9aR)-2-methyl-2,3,9,9a-tetrahydroindeno[2,1-b][1,4]oxazin-4(4aH)-yl)methanone]",100 to 1000
13,"Nc1nc2cc(F)c(C(=O)N3CC[C@@H]4Oc5cc(C(F)(F)F)ccc5[C@@H]43)cc2n2cncc12 [Ff-66, (4-amino-7-fluoroimidazo[1,5-a]quinoxalin-8-yl)((3aS,8bS)-6-(trifluoromethyl)-2,3,3a,8b-tetrahydro-1H-benzofuro[3,2-b]pyrrol-1-yl)methanone]",100 to 1000
